# Results published in patent US20210369853A1, “TARGETED PROTEASE DEGRADATION PLATFORM” (EUBULUS BIOTHERAPEUTICS INC., priority 2018, published 2021).
# Experiments:
# Type in all cases: cell-based
# [1] = test system: Human Monocytic Leukemia MV4-11; assay: Cell proliferation experiment (Alarm blue, 72 h, EC50); conditions: Homo sapiens, MV4-11, MV4;11 cells
# Outline: (§1)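 Log-phase cells, passaged at least 2 generations, were seeded in 96-well plates and exposed to test compound in complete medium as a 5-fold dilution series in duplicate for 72 h. Fluorescence was read by Alamar blue and EC50 fitted to a four-parameter curve (Min, Max, Slope).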
# [2] = test system: Human Colon Cancer HCT-116; assay: as above; conditions: Homo sapiens, HCT-116; HCT116 cells
# Outline: as §1
# BRD4 = target: T1, BRD4 (Homo sapiens, UniProt O60885); assay: Western blot, protein degradation (DC50); conditions: 6 h; read-out: BRD4 DC50 (6 h)
# T1 construct: endogenous in cells
# Description: (§2) Cells were treated with the compound for a period of time, after that the cells were collected by centrifugation. After washing with PBS, the cells were lysed by adding RIPA buffer; the cell lysate were added to the loading buffer and then appropriate volume were taken and slowly added to the corresponding wells of the gel plate, and run the SDS-PAGE gel (4%-12%). After running the gel, transferred to the PVDF membrane and sealed with 5% skimmed milk powder at room temperature for 1 hour. The membrane was placed in the primary antibody diluted with 5% skimmed milk powder and shaked slowly overnight at 4° C. After incubation with primary antibody, the membrane was washed 3 times using a TBST shaker; added secondary antibody diluted with 5% skimmed milk powder corresponding to the primary antibody, and shaked slowly at room temperature for 1 hour. After incubation with secondary antibody, the membrane was washed 3 times using the TBST shaker again. The PVDF membrane was flatted in the cassette, the strip was evenly infiltrated with ECL developer solution, and placed in ChemDoc XRS+ gel imager for taking pictures. The intensity of protein bands was analyzed quantitatively using ImageJ software.
# PLK1 = target: T2, PLK1 (Homo sapiens, UniProt P53350); assay: Western blot, protein degradation (DC50); conditions: 6 h; read-out: PLK1 DC50 (6 h)
# T2 construct: endogenous in cells
# Description: as §2
# T2 sequence (P53350 whole entry): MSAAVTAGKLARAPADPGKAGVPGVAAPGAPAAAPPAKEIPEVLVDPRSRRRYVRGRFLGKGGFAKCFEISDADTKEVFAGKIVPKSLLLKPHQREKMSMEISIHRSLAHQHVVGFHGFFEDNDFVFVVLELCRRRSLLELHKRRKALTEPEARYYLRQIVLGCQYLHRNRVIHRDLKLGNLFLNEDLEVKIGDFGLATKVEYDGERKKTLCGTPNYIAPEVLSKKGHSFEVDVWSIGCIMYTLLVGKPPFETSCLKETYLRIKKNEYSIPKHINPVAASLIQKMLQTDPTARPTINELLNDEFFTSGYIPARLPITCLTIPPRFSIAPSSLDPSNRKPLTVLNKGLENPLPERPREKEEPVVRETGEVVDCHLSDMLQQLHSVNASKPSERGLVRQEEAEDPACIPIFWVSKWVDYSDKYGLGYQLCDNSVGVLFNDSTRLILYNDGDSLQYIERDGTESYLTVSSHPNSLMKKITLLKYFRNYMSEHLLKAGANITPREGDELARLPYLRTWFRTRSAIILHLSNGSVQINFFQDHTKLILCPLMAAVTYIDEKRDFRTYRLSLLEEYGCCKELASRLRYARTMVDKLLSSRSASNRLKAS
EC50 [1],EC50 [2],DC50 (BRD4),DC50 (PLK1),Compound
100 to 1000 nM,> 1000 nM,,,Cc1sc2c(c1C)C(c1ccc(Cl)cc1)=N[C@@H](CC(=O)NCCCNCCCCCCCC(=O)Nc1cccc3c1CN(C1CCC(=O)NC1=O)C3=O)c1nnc(C)n1-2 (stereo partly shown) [UB-180630]
10 to 100 nM,,100 to 1000 nM,100 to 1000 nM,CC[C@@H]1C(=O)N(C)c2cnc(Nc3ccc(C(=O)NCCCNc4cccc5c4C(=O)N(C4CCC(=O)NC4=O)C5=O)cc3OC)nc2N1C1CCCC1 (stereo partly shown) [UB-180579]
10 to 100 nM,> 1000 nM,,,O=C1CCC(N2Cc3c(NC(=O)COCCOCCOCCOCCNC(=O)[C@]4(Cc5cccc(Nc6nccs6)n5)CC[C@@H](Oc5cccc(Cl)c5F)CC4)cccc3C2=O)C(=O)N1 (stereo partly shown) [UB-180582]
10 to 100 nM,> 1000 nM,,,O=C1CCC(N2Cc3c(NC(=O)COCCOCCOCCOCCNC(=O)c4ccc(Nc5ncc6c(n5)-c5ccc(Cl)cc5C(c5c(F)cccc5F)=NC6)cc4)cccc3C2=O)C(=O)N1 (stereo not shown) [UB-180534]
100 to 1000 nM,> 1000 nM,,,Cc1sc2c(c1C)C(c1ccc(Cl)cc1)=N[C@@H](CC(=O)NCCCNCCCCC(=O)Nc1cccc3c1CN(C1CCC(=O)NC1=O)C3=O)c1nnc(C)n1-2 (stereo partly shown) [UB-180641]
100 to 1000 nM,> 1000 nM,,,Cc1sc2c(c1C)C(c1ccc(Cl)cc1)=N[C@@H](CC(=O)NCCCNCCCCCC(=O)Nc1cccc3c1CN(C1CCC(=O)NC1=O)C3=O)c1nnc(C)n1-2 (stereo partly shown) [UB-180642]
10 to 100 nM,100 to 1000 nM,,,O=C1CCC(N2Cc3c(NC(=O)CCOCCOCCNC(=O)c4ccc(Nc5ncc6c(n5)-c5ccc(Cl)cc5C(c5c(F)cccc5F)=NC6)cc4)cccc3C2=O)C(=O)N1 (stereo not shown) [UB-180504]
> 1000 nM,> 1000 nM,,,O=C1CCC(N2Cc3c(NC(=O)COCCOCCNC(=O)[C@]4(Cc5cccc(Nc6nccs6)n5)CC[C@@H](Oc5cccc(Cl)c5F)CC4)cccc3C2=O)C(=O)N1 (stereo partly shown) [UB-180572]
,,> 1000 nM,> 1000 nM,CC[C@@H]1C(=O)N(C)c2cnc(Nc3ccc(C(=O)NCCOCCOCCOCC(=O)N[C@H](C(=O)N4C[C@H](O)C[C@H]4C(=O)NCc4ccc(-c5scnc5C)cc4)C(C)(C)C)cc3OC)nc2N1Cc1ccc(Br)cc1 [UB-180601]
> 1000 nM,> 1000 nM,,,O=C1CCC(N2Cc3c(NC(=O)CCNC(=O)c4ccc(Nc5ncc6c(n5)-c5ccc(Cl)cc5C(c5c(F)cccc5F)=NC6)cc4)cccc3C2=O)C(=O)N1 (stereo not shown) [UB-180617]
100 to 1000 nM,> 1000 nM,,,O=C1CCC(N2Cc3c(NC(=O)COCCOCCNC(=O)c4ccc(Nc5ncc6c(n5)-c5ccc(Cl)cc5C(c5c(F)cccc5F)=NC6)cc4)cccc3C2=O)C(=O)N1 (stereo not shown) [UB-180559]
> 1000 nM,> 1000 nM,,,O=C1CCC(N2Cc3c(NC(=O)COCCCCNC(=O)[C@]4(Cc5cccc(Nc6nccs6)n5)CC[C@@H](Oc5cccc(Cl)c5F)CC4)cccc3C2=O)C(=O)N1 (stereo partly shown) [UB-180586]
< 10 nM,100 to 1000 nM,,,CC[C@@H]1C(=O)N(C)c2cnc(Nc3ccc(C(=O)NC4CCN(CCOCCN(CC)CC(=O)Nc5cccc6c5CN(C5CCC(=O)NC5=O)C6=O)CC4)cc3OC)nc2N1C1CCCC1 (stereo partly shown) [UB-180828]
,,> 1000 nM,> 1000 nM,CC[C@@H]1C(=O)N(C)c2cnc(Nc3ccc(C(=O)NCCOCCOCCOCCC(=O)N[C@H](C(=O)N4C[C@H](O)C[C@H]4C(=O)NCc4ccc(-c5scnc5C)cc4)C(C)(C)C)cc3OC)nc2N1Cc1ccc(Br)cc1 [UB-180602]
100 to 1000 nM,100 to 1000 nM,,,O=C1CCC(N2Cc3c(NC(=O)COCCCCNC(=O)c4ccc(Nc5ncc6c(n5)-c5ccc(Cl)cc5C(c5c(F)cccc5F)=NC6)cc4)cccc3C2=O)C(=O)N1 (stereo not shown) [UB-180503]
> 1000 nM,> 1000 nM,,,O=C1CCC(N2Cc3c(NC(=O)COCCNC(=O)[C@]4(Cc5cccc(Nc6nccs6)n5)CC[C@@H](Oc5cccc(Cl)c5F)CC4)cccc3C2=O)C(=O)N1 (stereo partly shown) [UB-180577]
> 1000 nM,> 1000 nM,,,O=C1CCC(N2Cc3c(NC(=O)CCNC(=O)[C@]4(Cc5cccc(Nc6nccs6)n5)CC[C@@H](Oc5cccc(Cl)c5F)CC4)cccc3C2=O)C(=O)N1 (stereo partly shown) [UB-180616]
> 1000 nM,> 1000 nM,,,O=C1CCC(N2Cc3c(NC(=O)CCOCCOCCNC(=O)[C@]4(Cc5cccc(Nc6nccs6)n5)CC[C@@H](Oc5cccc(Cl)c5F)CC4)cccc3C2=O)C(=O)N1 (stereo partly shown) [UB-180590]
